Data on 2 compounds can be found in ChEMBL document CHEMBL1132604, “Hypoxia-selective nitrobenzyloxycarbonyl derivatives of 1,2-bis(methylsulfonyl)-1-(2-chloroethyl)hydrazines” (1999).

What all share (type): functional
Test [1] concerns Mus musculus. The test can be described thus: Surviving fraction of compound on BALB/c mice bearing well established intradermal EMT6 solid tumors was measured by intraperitoneal injection on treatment with drug and X-ray.
Test [2] deals with Mus musculus. As to the kind of experiment: Surviving fraction of compound on BALB/c mice bearing well established intradermal EMT6 solid tumors was measured by intraperitoneal injection on treatment with drug.
Test [3] deals with Mus musculus. As to the kind of experiment: Surviving fraction of compound on BALB/c mice bearing well established intradermal EMT6 solid tumors was measured by intraperitoneal injection on treatment with X-ray.
Test [4] has as its system Mus musculus. The test can be described thus: Surviving fraction of compound on BALB/c mice bearing well established intradermal EMT6 solid tumors was measured by intraperitoneal injection without any treatment.
In test [5] the test system is Mus musculus. The test can be described thus: Surviving fraction of compound on BALB/c mice bearing well established intradermal EMT6 solid tumors was measured by intraperitoneal injection on treatment with drug alone.
The test system of test [6] is Mus musculus. As to the kind of experiment: Surviving fraction of compound on BALB/c mice bearing well established intradermal EMT6 solid tumors was measured by intraperitoneal injection on treatment with X-ray alone.

Molecules are shown by their SMILES.

Regarding `CS(=O)(=O)N(CCCl)N(C(=O)OCc1ccc([N+](=O)[O-])cc1)S(C)(=O)=O`, the Surviving fraction with Mus musculus [1] is recorded as 0.013; in the test with Mus musculus [2] it was 0.841; in the test on Mus musculus [3], 0.043; in the test on Mus musculus [4] it was 1.
In the case of `COc1cc(COC(=O)N(N(CCCl)S(C)(=O)=O)S(C)(=O)=O)c([N+](=O)[O-])cc1OC`, the Surviving fraction stood at 0.856 in the test with Mus musculus [5], 0.043 with Mus musculus [6], 0.024 with Mus musculus [1] and 1 in the test with Mus musculus [4].
